Measured values: patent publication US7696238B2, “Substituted benzo[d]isoxazol-3-yl amine compounds as analgesics” (Gruenenthal GmbH, priority 2005, dated 2010)

Experiments:
[1] = molecular target: T1, hKCNQ2/3 (stably transfected hKCNQ2/3 CHO-K1 cell line) (Homo sapiens, UniProt O43525+O43526); experiment: Voltage clamp (patch-clamp) measurements, current increase relative to retigabin; assay type: cell-based; conditions: test substance 10 μM at −40 mV; current increase standardized to retigabin (10 μM) effect
T1 construct: expressed in transfected cells; host or cells: CHO-K1
Method: II. Voltage Clamp Measurements
In order to confirm electrophysiologically a KCNQ2/3 agonistic action of the substances, patch-clamp measurements [see Hamill O P, Marty A, Neher E, Sakmann B, Sigworth F J: “Improved patch-clamp techniques for high-resolution current recording from cells and cell-free membrane patches”, Pflugers Arch. 1981 August; 391(2):85-100] were carried out in the voltage clamp mode on a stably transfected hKCNQ2/3 CHO-K1 cell line. After formation of the gigaseal the cells were first of all clamped at a holding potential of −60 mV. Depolarising voltage jumps were then applied up to a potential of +20 mV (increment: 20 mV, duration: 1 second), in order to confirm the functional expression of KCNQ2/3 typical currents. The substances were tested at a potential of −40 mV. The current increase induced by retigabin (10 μM) was first of all recorded on each cell at −40 mV as positive control. After completely washing out the retigabin effect (duration: 80 sec) the test substance (10 μM) was applied. The current increase induced by the test substance was standardized to the retigabin effect and stated as relative efficacy (see below).

[2] = molecular target: T2, KCNQ2/3 ion channel (KCNQ2/3-expressing CHO-K1 cells) (Homo sapiens, UniProt O43525+O43526); experiment: Fluorescence assay (FLIPR instrument, membrane potential dye) for substances acting agonistically on the KCNQ2/3 ion channel; assay type: cell-based; conditions: difference between maximum and minimum values, agonistic action detected from a value of −40 (and below)
T2 construct: expressed in transfected cells; host or cells: CHO-K1
Method: Pharmacological Test Methods I. Fluorescence Assay (FLIPR™ Instrument) for the Identification of Substances Acting Agonistically on the KCNQ2/3 Ion Channel
On the day before the experiment, KCNQ2/3-expressing CHO-K1 cells and CHO-K1 empty strain cells were seeded out onto coated poly-D-lysine black/clear plates (Falcon/BD Company; Order No.: 356640) in a concentration of 20000 cells/100 μl MEM alpha, 50 ml FCS, 5.5 ml PIS/G/solution (100×) and then incubated for 20-24 hours in an incubator (37° C., 5% CO2). On the day of the experiment the HBSS/hepes working solution and the FMP/HBSS/hepes mixture (Membrane Potential Assay Kit Red (FMP), bulk format Cat. No. R8123) were initially prepared according to the following protocol:
• 1000 ml 1× HBSS buffer (Hank's Balanced Salt Solution (1×) (Gibco; No. 14025)+10 ml hepes (1M stock solution, pH 7.4; hepes Na salt (Sigma Company; No. H7006-500 g; storage at 4° C. in a refrigerator) 2. 1× FMP/HBSS/hepes working solution: • 6 ml HBSS/hepes buffer are added to 5 ml of the FMP solution stored at −20° C. (preparation see below; thawing out at room temperature). The test substances (2 mM batch solution in 100% DMSO) contained in drug plates (Costar 96-well plates, catalogue No. 3795) were then diluted by adding HBSS/hepes buffer to a concentration of 30 μM (3× concentrated). The assay plates on which the cells grow were washed once with 200 μl HBSS/hepes (Cellwash Washer, Labsystems Company, catalogue No. 5161550) and the remaining volume was removed by tapping out the inverted plate twice. 100 μl of the FMP/HBSS/hepes working solution were then added in each case to the cell plates and incubated for 1 hour in the CO2 incubator at 37° C. and 5% CO2. The measurements are then carried out with a FLIPR III instrument from the Molecular Devices company (96-format, using the 540-590 nm band-pass filter in the #2 localization). In the experimental setup of the FLIPR software, filter #2 should be selected. The cell plates and the substance plates were fed alternately into the input stack. A signal test was carried out in each case with the cell plates before adding the substance. The test substances were then added via the pipetting unit of the FLIPR (added volume 50 μl, 3× concentrated, end concentration 10 μM) to the cavities of the cell plates in a total volume of 150 μl/well. The threshold data of the FLIPR program were as follows:
The pipette tips were washed after each pipetting procedure 3 times with 1% DMSO in water. The times of the measurement intervals after addition of the test substances are as follows:
Total measurement time: 6 min/plate
The test samples were evaluated by calculating the difference between the maximum and minimum values. EC50/IC50 values are calculated using the Graph Pad Prism software.
Preparation of the membrane potential loading buffer (membrane potential assay kit red (FMP), bulk format cat. No. R8123) according to the manufacturer's instructions:
10 ml of the 10× assay buffer (component B) were diluted with 90 ml of sterile water and then adjusted to pH 7.4 with 1.0N NaOH (1× assay buffer). One vessel with the FLIPR membrane potential assay component A was completely dissolved in 100 ml 1× assay buffer and thoroughly mixed for 10 minutes with a magnetic stirrer. 5 ml aliquots were then stored at −20° C. (storage shelf life ca. 2 weeks).
An agonistic action can be detected starting from a value of −40 (and below).

Structure (SMILES) | Voltage clamp: relative efficacy with respect to retigabin [10 μM] [1] | FLIPR membrane potential fluorescence change (ΔF %, max minus min); negative values indicate KCNQ2/3 agonism [2] [%]
Cc1cc(CNc2noc3cc(F)ccc23)cc(C)c1OCc1ccccc1 [Example 170, (4-benzyloxy-3,5-dimethyl-benzyl)-(6-fluorobenzo[d]isoxazol-3-yl)-amine] | 0.72 | –
Fc1ccc2onc(NCc3ccc(OC(F)(F)F)cc3)c2c1 [Example 159, (5-fluorobenzo[d]isoxazol-3-yl)-(4-trifluoromethoxy-benzyl)-amine] | 0.42 | −41
Cc1cc(C)cc(CNc2noc3cccc(N)c23)c1 [Example 174, N3-(3,5-dimethylbenzyl)-benzo[d]isoxazole-3,4-diamine] | 0.8 | −45.5
Fc1ccc2c(NCc3cccc(OCc4ccccc4)c3)noc2c1 [Example 173, (3-benzyloxybenzyl)-(6-fluorobenzo[d]isoxazol-3-yl)-amine] | 0.84 | −55
Fc1ccc2onc(NCc3ccc(SC(F)(F)F)cc3)c2c1 [Example 162, (5-fluorobenzo[d]isoxazol-3-yl)-(4-trifluoromethyl-sulfanylbenzyl)-amine] | 0.79 | –
N#Cc1cccc(NC(=S)Nc2noc3cc(F)ccc23)c1 [Example 112, 1-(3-cyanophenyl)-3-(6-fluoro-benzo[d]isoxazol-3-yl)-thiourea] | 0.3 | –
FC(F)(F)Sc1ccc(CNc2noc3ccc(Br)cc23)cc1 [Example 176, (5-bromobenzo[d]isoxazol-3-yl)-(4-trifluoromethyl-sulfanyl-benzyl)-amine] | 0.62 | –
COc1ccc(CNc2noc3cc(F)ccc23)cc1Br [Example 168, (3-bromo-4-methoxy-benzyl)-(6-fluorobenzo[d]-isoxazol-3-yl)-amine] | 0.35 | –
CCCCc1ccc(CNc2noc3cc(F)ccc23)cc1 [Example 171, (4-butylbenzyl)-(6-fluorobenzo[d]isoxazol-3-yl)-amine] | 0.68 | −53
Cc1cc(C)cc(NC(=S)Nc2noc3cccc(N(C)C)c23)c1 [Example 63, 1-(4-dimethylamino-benzo[d]isoxazol-3-yl)-3-(3,5-dimethylphenyl)-thiourea] | – | −56
CCCCc1ccc(CNc2noc3cccc(N)c23)cc1 [Example 175, N3-(4-butylbenzyl)-benzo[d]isoxazole-3,4-diamine] | 0.59 | −57.7
Cc1cc(C)cc(CNc2noc3cc(F)ccc23)c1 [Example 169, (3,5-dimethylbenzyl)-(6-fluorobenzo[d]isoxazol-3-yl)-amine] | – | −63.25
COc1cccc(NC(=S)Nc2noc3cc(Cl)ccc23)c1 [Example 107] | – | −80
CN(C)c1ccc(NC(=S)Nc2noc3cccc(OCC(F)(F)F)c23)cc1 [Example 92, 1-(4-dimethylaminophenyl)-3-[4-(2.2,2-trifluoroethoxy)-benzo[d]isoxazol-3-yl]-thiourea] | – | −51
Cc1cc(C)cc(CNc2noc3c(F)cccc23)c1 [Example 167, (3,5-dimethylbenzyl)-(7-fluorobenzo[d]isoxazol-3-yl)-amine] | 0.25 | −61

More lines, now with the values ahead:

Voltage clamp: relative efficacy with respect to retigabin [10 μM] [1] | FLIPR membrane potential fluorescence change (ΔF %, max minus min); negative values indicate KCNQ2/3 agonism [2] [%] | Structure (SMILES)
0.22 | −49 | FC(F)(F)c1ccc(CNc2noc3ccccc23)cc1 [Example 152, benzo[d]isoxazol-3-yl-(4-trifluoromethylbenzyl)-amine]
0.61 | −40 | CCCCc1ccc(CNc2noc3cc(Cl)ccc23)cc1 [Example 161, (4-butylbenzyl)-(6-chloro-benzo[d]isoxazol-3-yl)-amine]
0.45 | −58 | FC(F)(F)Sc1ccc(CNc2noc3ccccc23)cc1 [Example 160, benzo[d]isoxazol-3-yl-(4-trifluoromethylsulfanyl-benzyl)-amine]
0.37 | – | CC(Nc1noc2ccccc12)c1ccc(SC(F)(F)F)cc1 (centres unmarked) [Example 2, Benzo[d]isoxazol-3-yl-[1-(4-trifluoromethyl-sulfanylphenyl)-ethyl]-amine]
– | −40 | COc1ccc(NC(=S)Nc2noc3cccc(OCC(F)(F)F)c23)cc1 [Example 84, 1-(4-methoxyphenyl)-3-[4-(2,2,2-trifluoroethoxy)-benzo[d]isoxazol-3-yl]-thiourea]
– | −55 | Cc1cccc(Cl)c1NC(=S)Nc1noc2cc(F)ccc12 [Example 113, 1-(2-chloro-6-methylphenyl)-3-(6-fluorobenzo[d]isoxazol-3-yl)-thiourea]
– | −59.5 | COC(=O)C(C)NC(=S)Nc1noc2cccc(F)c12 (centres unmarked) [Example 50, 2-[3-(4-fluoro-benzo[d]isoxazol-3-yl)-thioureido]-propionic acid methyl ester]
0.42 | – | CC(Nc1noc2ccccc12)c1ccc(C(F)(F)F)cc1 (centres unmarked) [Example 1, Benzo[d]isoxazol-3-yl-[1-(4-trifluoro-methylphenyl)-ethyl]-amine]
0.2 | – | COc1ccccc1NC(=S)Nc1noc2cccc(OC)c12 [Example 130, 1-(4-methoxybenzo[d]isoxazol-3-yl)-3-(2-methoxyphenyl)-thiourea]
– | −42 | COc1ccc(NC(=S)Nc2noc3cccc(OC)c23)c(OC)c1 [Example 134, 1-(2,4-dimethoxyphenyl)-3-(4-methoxybenzo[d]isoxazol-3-yl)-thiourea]
– | −79 | COCCCNC(=S)Nc1noc2cccc(N(C)C)c12 [Example 65, 1-(4-dimethylamino-benzo[d]isoxazol-3-yl)-3-(3-methoxypropyl)-thiourea]
